Results published in patent publication US12077503B2, “Substituted cyclic amides and their use as herbicides” (FMC CORPORATION, priority 2015, dated 2024).
Like-named read-outs stand apart in the source and are kept apart here.

Tests used:
Format in all cases: in vivo
[1] = test system: blackgrass (Alopecurus myosuroides); experiment: Test A postemergence; conditions: Alopecurus myosuroides, post-emergence, 240 h, Postemergence; for pest or weed control at 125 g/ha: 125 g ai/ha, visual rating about 10 d after treatment, read-out: Blackgrass plant response rating (0 to 100 scale); for pest or weed control at 500 g/ha: 500 g ai/ha, visual injury, 0 to 100 scale (0 no effect, 100 complete control), approx. 10 d, read-out: Plant response rating, Blackgrass
How it was run: (§1)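 Compounds were formulated in a non-phytotoxic solvent mixture with surfactant and applied as a preemergence directed soil spray after seeding, or sprayed postemergence over plants 2 to 10 cm tall at the one- to two-leaf stage. Evaluation after about 10 d compared treated with untreated controls, using a scale from 0 (no effect) to 100 (complete control).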

[2] = test system: ryegrass, Italian (Italian ryegrass, Lolium multiflorum); experiment: Test A postemergence; conditions: Lolium multiflorum, post-emergence, 240 h, Postemergence; for pest or weed control at 125 g/ha: 125 g ai/ha, visual rating about 10 d after treatment, read-out: Ryegrass, Italian plant response rating (0 to 100 scale); for pest or weed control at 500 g/ha: 500 g ai/ha, visual injury, 0 to 100 scale (0 no effect, 100 complete control), approx. 10 d, read-out: Plant response rating, Ryegrass, Italian
How it was run: as §1

[3] = test system: ragweed (common ragweed, Ambrosia elatior); experiment: Test A postemergence; conditions: Ambrosia artemisiifolia, post-emergence, 240 h, Postemergence; for pest or weed control at 125 g/ha: 125 g ai/ha, visual rating about 10 d after treatment, read-out: Ragweed plant response rating (0 to 100 scale); for pest or weed control at 500 g/ha: 500 g ai/ha, visual injury, 0 to 100 scale (0 no effect, 100 complete control), approx. 10 d, read-out: Plant response rating, Ragweed
How it was run: as §1

[4] = test system: wheat (Triticum aestivum); experiment: Test A postemergence; conditions: Triticum aestivum, post-emergence, 240 h, Postemergence; for plant injury at 125 g/ha: 125 g ai/ha, visual rating about 10 d after treatment, read-out: Wheat plant response rating (0 to 100 scale); for plant injury at 500 g/ha: 500 g ai/ha, visual injury, 0 to 100 scale (0 no effect, 100 complete control), approx. 10 d, read-out: Plant response rating, Wheat
How it was run: as §1

Kochia (Kochia scoparia) [5] = experiment: Test A postemergence; conditions: Bassia scoparia, post-emergence, 240 h, Postemergence; for pest or weed control at 125 g/ha: 125 g ai/ha, visual rating about 10 d after treatment, read-out: Kochia plant response rating (0 to 100 scale); for pest or weed control at 500 g/ha: 500 g ai/ha, visual injury, 0 to 100 scale (0 no effect, 100 complete control), approx. 10 d, read-out: Plant response rating, Kochia
How it was run: as §1

[6] = test system: barnyardgrass (Echinochloa crus-galli); experiment: Test A preemergence; conditions: Echinochloa crus-galli, pre-emergence, 240 h; for pest or weed control at 500 g/ha: 500 g ai/ha, preemergence; for pest or weed control at 125 g/ha: Preemergence, 125 g ai/ha
How it was run: as §1

[7] = test system: giant foxtail (Setaria faberii); experiment: Test A preemergence; conditions: Setaria faberi, pre-emergence, 240 h; for pest or weed control at 500 g/ha: 500 g ai/ha, preemergence; for pest or weed control at 125 g/ha: Preemergence, 125 g ai/ha
How it was run: as §1

[8] = test system: ryegrass, Italian (Italian ryegrass, Lolium multiflorum); experiment: Test A preemergence; conditions: Lolium multiflorum, pre-emergence, 240 h; for pest or weed control at 500 g/ha: 500 g ai/ha, preemergence; for pest or weed control at 125 g/ha: Preemergence, 125 g ai/ha
How it was run: as §1

[9] = test system: ragweed (common ragweed, Ambrosia elatior); experiment: Test A preemergence; conditions: Ambrosia artemisiifolia, pre-emergence, 240 h; for pest or weed control at 500 g/ha: 500 g ai/ha, preemergence; for pest or weed control at 125 g/ha: Preemergence, 125 g ai/ha
How it was run: as §1

Kochia (Kochia scoparia) [10] = experiment: Test A preemergence; conditions: Bassia scoparia, pre-emergence, 240 h; for pest or weed control at 500 g/ha: 500 g ai/ha, preemergence; for pest or weed control at 125 g/ha: Preemergence, 125 g ai/ha
How it was run: as §1

[11] = test system: pigweed (Amaranthus retroflexus); experiment: Test A preemergence; conditions: Amaranthus retroflexus, pre-emergence, 240 h; for pest or weed control at 500 g/ha: 500 g ai/ha, preemergence; for pest or weed control at 125 g/ha: Preemergence, 125 g ai/ha
[12] = test system: sedge, umbrella (small-flower umbrella sedge, Cyperus difformis); experiment: Test B flooded paddy test; conditions: Cyperus difformis, 250 g ai/ha, Flood
How it was run: (§2)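 Greenhouse paddy pots with 2-leaf stage plants received compound by direct addition to floodwater 3 cm deep, kept at that level. Scored visually at 13–15 d versus controls (0 no effect; 100 complete control).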

[13] = test system: barnyardgrass (Echinochloa crus-galli); experiment: Test B flooded paddy test; conditions: Echinochloa crus-galli, 250 g ai/ha, Flood
How it was run: as §2

[14] = test system: ducksalad (Heteranthera limosa); experiment: Test B flooded paddy test; conditions: Heteranthera limosa, 250 g ai/ha, Flood
How it was run: as §2

rice (Oryra sativa) = experiment: Test B flooded paddy test; conditions: Oryza sativa, 250 g ai/ha, Flood
How it was run: as §2

[15] = 0 to 100 scale where 0 is no effect and 100 is complete control, read-out: Barnyardgrass plant response rating
[16] = 0 to 100 scale (0 no effect, 100 complete control), read-out: Plant response rating, Barnyardgrass
[17] = 0 to 100 scale where 0 is no effect and 100 is complete control, read-out: Foxtail, Giant plant response rating
[18] = 0 to 100 scale (0 no effect, 100 complete control), read-out: Plant response rating, Foxtail, Giant
[19] = 0 to 100 scale (0 no effect, 100 complete control), read-out: Plant response rating, Ryegrass, Italian
[20] = 0 to 100 scale where 0 is no effect and 100 is complete control, read-out: Ragweed plant response rating
[21] = 0 to 100 scale (0 no effect, 100 complete control), read-out: Plant response rating, Ragweed
[22] = 0 to 100 scale where 0 is no effect and 100 is complete control, read-out: Kochia plant response rating
[23] = 0 to 100 scale (0 no effect, 100 complete control), read-out: Plant response rating, Kochia
[24] = 0 to 100 scale where 0 is no effect and 100 is complete control, read-out: Pigweed plant response rating
[25] = 0 to 100 scale (0 no effect, 100 complete control), read-out: Plant response rating, Pigweed
[26] = 0 to 100 scale where 0 is no effect and 100 is complete control, read-out: Ducksalad plant response rating
[27] = 0 to 100 scale where 0 is no effect and 100 is complete control, read-out: Rice plant response rating
[28] = 360 h, visually evaluated after 13 to 15 d, read-out: Plant response rating, Sedge, Umbrella (0 to 100 scale where 0 is no effect and 100 is complete control)

Compound | pest or weed control at 125 g/ha [1] [%] | pest or weed control at 500 g/ha [1] [%] | pest or weed control at 125 g/ha [2] [%] | pest or weed control at 500 g/ha [2] [%] | pest or weed control at 125 g/ha [3] [%] | pest or weed control at 500 g/ha [3] [%] | plant injury at 125 g/ha [4] [%] | plant injury at 500 g/ha [4] [%] | pest or weed control at 125 g/ha (Kochia (Kochia scoparia) [5]) [%] | pest or weed control at 500 g/ha (Kochia (Kochia scoparia) [5]) [%] | pest or weed control at 500 g/ha [6, 15] [%] | pest or weed control at 125 g/ha [6, 16] [%] | pest or weed control at 500 g/ha [7, 17] [%] | pest or weed control at 125 g/ha [7, 18] [%] | pest or weed control at 125 g/ha [8, 19] [%] | pest or weed control at 500 g/ha [9, 20] [%] | pest or weed control at 125 g/ha [9, 21] [%] | pest or weed control at 500 g/ha (Kochia (Kochia scoparia) [10]; [22]) [%] | pest or weed control at 125 g/ha (Kochia (Kochia scoparia) [10]; [23]) [%] | pest or weed control at 125 g/ha [11, 25] [%] | also measured
Cc1cc(F)cc([C@H]2CNC(=O)[C@@H]2C(=O)Nc2cccc(F)c2F)c1 [Compound 1309] | 0 | 60 | 0 | 20 | 0 | 30 | 20 | 20 | 0 | 50 | 90 | 90 | 90 | 80 | 0 | 50 | 40 | 60 | 60 | 0 | pest or weed control at 500 g/ha ([8]; 0 to 100 scale where 0 is no effect and 100 is complete control, read-out: Ryegrass, Italian plant response rating): 20%; pest or weed control at 500 g/ha [11, 24]: 20%; pest or weed control at 250 g/ha ([12]; 0 to 100 scale where 0 is no effect and 100 is complete control, read-out: Sedge, Umbrella plant response rating): 0%; pest or weed control at 250 g/ha [13, 15]: 60%; pest or weed control at 250 g/ha [14, 26]: 100%; pest or weed control at 250 g/ha (rice (Oryra sativa); [27]): 20%
CSc1ccccc1NC(=O)[C@H]1C(=O)N(C)C[C@@H]1c1ccc(F)c(C)c1 [Compound 1312] | 50 | 70 | 30 | 50 | 0 | 70 | 30 | 80 | 50 | 70 | 100 | 90 | 100 | 90 | 60 | 100 | 70 | 80 | 50 | 20 | pest or weed control at 500 g/ha [11, 24]: 60%; pest or weed control at 250 g/ha [12, 28]: 0%; pest or weed control at 250 g/ha [13, 15]: 40%; pest or weed control at 250 g/ha [14, 26]: 100%; pest or weed control at 250 g/ha (rice (Oryra sativa); [27]): 0%
CN1C[C@H](c2ccc3c(c2)CCO3)[C@@H](C(=O)Nc2ccccc2F)C1=O [Compound 1321] | 30 | 50 | 20 | 50 | 0 | 20 | 20 | 50 | 0 | 50 | 100 | 90 | 100 | 90 | 0 | 50 | 50 | 80 | 50 | 0 | pest or weed control at 500 g/ha [11, 24]: 0%; pest or weed control at 250 g/ha [12, 28]: 0%; pest or weed control at 250 g/ha [13, 15]: 90%; pest or weed control at 250 g/ha [14, 26]: 85%; pest or weed control at 250 g/ha (rice (Oryra sativa); [27]): 0%
O=C1NC[C@H](c2cncs2)[C@H]1C(=O)Nc1ccccc1F [Compound 1335] | 0 | 0 | 0 | 0 | 0 | 0 | 0 | 0 | 0 | 0 |  | 0 |  | 0 | 0 |  | 0 |  | 0 | 0 | pest or weed control at 500 g/ha [6, 16]: 0%; pest or weed control at 500 g/ha [7, 18]: 0%; pest or weed control at 500 g/ha [8, 19]: 0%; pest or weed control at 500 g/ha [9, 21]: 0%; pest or weed control at 500 g/ha (Kochia (Kochia scoparia) [10]; [23]): 0%; pest or weed control at 500 g/ha [11, 25]: 0%; pest or weed control at 250 g/ha [12, 28]: 0%; pest or weed control at 250 g/ha ([13]; 360 h, visually evaluated after 13 to 15 d, read-out: Plant response rating, Barnyardgrass (0 to 100 scale where 0 is no effect and 100 is complete control)): 0%; pest or weed control at 250 g/ha ([14]; 360 h, visually evaluated after 13 to 15 d, read-out: Plant response rating, Ducksalad (0 to 100 scale where 0 is no effect and 100 is complete control)): 0%; pest or weed control at 250 g/ha (rice (Oryra sativa); 360 h, visually evaluated after 13 to 15 d, read-out: Plant response rating, Rice (0 to 100 scale where 0 is no effect and 100 is complete control)): 0%
